Measurements published in ChEMBL document CHEMBL1201862, “PubChem BioAssay data set” (2004).
Activity calls are given as the source filed them.

Key:
[1] = biological target: T1, Oxysterols receptor LXR-beta (Homo sapiens, UniProt P55055); type: functional, cell-based;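 also: agonist activity at LXR measured by a cell-based luminescence readout across a dose range, run as a counterscreen for daf-12 agonists; HEK293 cells with Gal4-LXR fusion and GAL4-driven luciferase reporter; potency for activation of Gal4-LXR reporter so compounds are agonists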
T1 sequence (P55055 whole entry): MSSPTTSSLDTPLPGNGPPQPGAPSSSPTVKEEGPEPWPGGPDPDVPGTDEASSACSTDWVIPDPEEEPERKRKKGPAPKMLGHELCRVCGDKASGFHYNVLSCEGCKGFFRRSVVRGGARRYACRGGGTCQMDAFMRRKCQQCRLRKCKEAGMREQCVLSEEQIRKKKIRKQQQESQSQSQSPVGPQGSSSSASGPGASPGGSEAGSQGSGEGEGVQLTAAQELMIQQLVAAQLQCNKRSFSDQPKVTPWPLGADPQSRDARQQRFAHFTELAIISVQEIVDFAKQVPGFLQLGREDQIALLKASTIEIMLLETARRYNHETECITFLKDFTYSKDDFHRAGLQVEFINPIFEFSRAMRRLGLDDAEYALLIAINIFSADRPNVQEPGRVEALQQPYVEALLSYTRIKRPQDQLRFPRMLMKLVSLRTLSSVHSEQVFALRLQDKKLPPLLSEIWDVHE

[2] = HEK293T cell cytotoxicity, dose response, cytotoxicity control for HIV Vif inhibitor project, cherry-picks (AID 652208); type: functional, cell-based
Cytochrome P450 2C9 = Cytochrome P450 2C9 (Homo sapiens, UniProt P11712)
Chain of Cytochrome P450 2C9 (P11712 whole entry): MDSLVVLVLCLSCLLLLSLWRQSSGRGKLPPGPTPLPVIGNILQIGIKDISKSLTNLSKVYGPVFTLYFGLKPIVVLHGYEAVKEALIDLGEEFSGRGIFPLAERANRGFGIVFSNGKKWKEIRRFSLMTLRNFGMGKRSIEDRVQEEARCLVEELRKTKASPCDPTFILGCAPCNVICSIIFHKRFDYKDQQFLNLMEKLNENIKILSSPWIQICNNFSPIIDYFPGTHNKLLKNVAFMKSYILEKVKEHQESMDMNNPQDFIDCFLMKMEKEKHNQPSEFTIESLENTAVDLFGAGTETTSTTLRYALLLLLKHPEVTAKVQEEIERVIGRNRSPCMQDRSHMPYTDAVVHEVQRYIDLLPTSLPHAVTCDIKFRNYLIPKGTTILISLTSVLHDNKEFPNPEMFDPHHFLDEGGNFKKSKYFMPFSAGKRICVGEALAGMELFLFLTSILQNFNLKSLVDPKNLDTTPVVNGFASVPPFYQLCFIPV

Cytochrome P450 3A4 = Cytochrome P450 3A4 (Homo sapiens, UniProt P08684);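 also: CYP3A4 tested as one member of a cytochrome P450 panel screen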
Chain of Cytochrome P450 3A4 (P08684 whole entry): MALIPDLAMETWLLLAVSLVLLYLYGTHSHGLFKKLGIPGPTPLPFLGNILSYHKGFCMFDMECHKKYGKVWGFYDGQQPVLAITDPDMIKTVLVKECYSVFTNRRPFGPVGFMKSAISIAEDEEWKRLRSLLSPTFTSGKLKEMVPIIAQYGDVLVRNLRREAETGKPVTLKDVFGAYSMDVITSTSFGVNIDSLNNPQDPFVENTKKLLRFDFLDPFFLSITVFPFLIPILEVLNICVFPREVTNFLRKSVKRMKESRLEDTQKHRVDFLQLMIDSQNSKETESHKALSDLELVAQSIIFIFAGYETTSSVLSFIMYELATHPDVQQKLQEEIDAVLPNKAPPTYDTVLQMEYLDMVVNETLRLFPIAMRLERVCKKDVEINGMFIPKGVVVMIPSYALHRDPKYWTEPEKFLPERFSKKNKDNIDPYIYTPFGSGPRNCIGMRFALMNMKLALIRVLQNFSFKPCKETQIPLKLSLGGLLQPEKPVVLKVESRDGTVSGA

Beta-galactosidase = Beta-galactosidase (Escherichia coli, UniProt Q8VNN2); assay: Dose response counterscreen for EBI2 assay utilizing the enzyme, b-galactosidase.; type: functional
Chain of Beta-galactosidase (Q8VNN2 whole entry): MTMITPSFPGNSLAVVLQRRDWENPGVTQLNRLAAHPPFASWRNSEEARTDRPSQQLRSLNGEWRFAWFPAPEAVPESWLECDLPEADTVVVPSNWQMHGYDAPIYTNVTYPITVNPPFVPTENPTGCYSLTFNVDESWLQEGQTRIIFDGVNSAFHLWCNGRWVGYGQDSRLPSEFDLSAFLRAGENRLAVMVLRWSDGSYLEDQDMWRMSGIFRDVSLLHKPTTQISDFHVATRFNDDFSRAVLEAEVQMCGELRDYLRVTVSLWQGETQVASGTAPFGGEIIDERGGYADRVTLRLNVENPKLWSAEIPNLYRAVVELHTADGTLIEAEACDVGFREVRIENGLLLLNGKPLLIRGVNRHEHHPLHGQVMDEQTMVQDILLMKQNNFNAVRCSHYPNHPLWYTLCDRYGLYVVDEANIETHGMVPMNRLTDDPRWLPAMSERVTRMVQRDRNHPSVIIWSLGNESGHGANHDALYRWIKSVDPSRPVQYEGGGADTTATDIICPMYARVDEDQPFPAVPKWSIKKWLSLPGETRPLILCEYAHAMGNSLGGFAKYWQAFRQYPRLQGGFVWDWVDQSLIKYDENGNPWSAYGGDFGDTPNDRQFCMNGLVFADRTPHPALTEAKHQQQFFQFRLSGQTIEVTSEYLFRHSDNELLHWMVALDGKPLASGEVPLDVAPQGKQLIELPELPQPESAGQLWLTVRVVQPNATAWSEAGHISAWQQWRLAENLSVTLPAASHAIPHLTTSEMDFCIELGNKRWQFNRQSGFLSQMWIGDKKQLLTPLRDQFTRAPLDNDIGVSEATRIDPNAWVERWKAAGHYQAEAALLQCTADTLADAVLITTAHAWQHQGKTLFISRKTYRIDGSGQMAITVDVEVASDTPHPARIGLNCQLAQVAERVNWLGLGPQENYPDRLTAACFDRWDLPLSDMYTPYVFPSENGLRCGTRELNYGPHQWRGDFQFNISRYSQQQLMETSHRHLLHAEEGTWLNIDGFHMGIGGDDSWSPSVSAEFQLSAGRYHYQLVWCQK

Beta-lactamase [3] = biological target: T2, Beta-lactamase (Pseudomonas aeruginosa, UniProt Q79MP6); assay: […] counterscreen for selective VIM-2 inhibitors: dose response biochemical high throughput screening assay to identify inhibitors of IMP-1 metallo-beta-lactamase.
T2 sequence (Q79MP6 whole entry): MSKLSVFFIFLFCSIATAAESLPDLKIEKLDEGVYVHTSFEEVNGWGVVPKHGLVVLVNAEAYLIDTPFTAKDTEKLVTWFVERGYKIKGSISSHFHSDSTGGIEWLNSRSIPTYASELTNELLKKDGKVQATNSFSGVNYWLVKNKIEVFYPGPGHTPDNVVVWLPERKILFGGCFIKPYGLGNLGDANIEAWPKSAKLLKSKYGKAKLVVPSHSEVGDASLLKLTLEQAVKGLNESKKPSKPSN

Phospholipase A2 = Phospholipase A2 (Homo sapiens, UniProt P04054); type: functional;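 also: confirmatory dose-response counterscreen on phospholipase A2, testing hits that came from an ultra-high-throughput screen for ATG4B inhibitors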
Chain of Phospholipase A2 (P04054 whole entry): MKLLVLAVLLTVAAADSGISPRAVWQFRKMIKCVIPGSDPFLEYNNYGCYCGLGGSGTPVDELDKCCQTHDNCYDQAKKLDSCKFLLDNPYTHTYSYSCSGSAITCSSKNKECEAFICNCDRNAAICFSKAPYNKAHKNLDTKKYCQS

Beta-lactamase [4] = biological target: Beta-lactamase (Salmonella choleraesuis (strain SC-B67), UniProt Q5J463); assay: Epi-absorbance-based counterscreen for selective VIM-2 inhibitors: dose response biochemical high throughput screening assay to identify inhibitors of TEM-1 serine-beta-lactamase.
Chain of Beta-lactamase (Salmonella choleraesuis (strain SC-B67), UniProt Q5J463) (Q5J463 whole entry): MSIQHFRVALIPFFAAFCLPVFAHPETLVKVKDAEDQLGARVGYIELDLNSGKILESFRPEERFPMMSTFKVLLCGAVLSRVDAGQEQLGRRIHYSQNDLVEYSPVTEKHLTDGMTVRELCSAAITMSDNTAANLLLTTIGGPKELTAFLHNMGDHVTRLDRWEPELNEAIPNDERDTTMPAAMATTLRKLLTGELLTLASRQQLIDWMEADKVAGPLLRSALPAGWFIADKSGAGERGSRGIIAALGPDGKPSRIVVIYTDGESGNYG

Cysteine protease ATG4B = biological target: T3, Cysteine protease ATG4B (Homo sapiens, UniProt Q9Y4P1); type: functional;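 also: Fluorescence-based dose-response confirmation assay measuring inhibition of ATG4B activity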
T3 sequence (Q9Y4P1 whole entry): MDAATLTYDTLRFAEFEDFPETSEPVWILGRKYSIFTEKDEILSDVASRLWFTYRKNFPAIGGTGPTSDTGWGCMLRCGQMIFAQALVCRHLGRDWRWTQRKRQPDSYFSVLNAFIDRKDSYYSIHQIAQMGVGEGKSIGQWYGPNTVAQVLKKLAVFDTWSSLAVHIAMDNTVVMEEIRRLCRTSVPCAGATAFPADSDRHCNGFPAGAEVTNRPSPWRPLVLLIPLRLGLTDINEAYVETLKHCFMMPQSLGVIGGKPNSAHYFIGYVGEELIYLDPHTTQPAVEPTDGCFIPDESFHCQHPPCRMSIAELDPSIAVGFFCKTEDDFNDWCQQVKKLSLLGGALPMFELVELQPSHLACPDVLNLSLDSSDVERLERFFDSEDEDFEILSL

Beta-lactamase [5] = biological target: T2, Beta-lactamase; assay: IMP-1 metallo-beta-lactamase inhibitors, dose response, selectivity assay for VIM-2 inhibitor project, biochemical, epi-absorbance (AID 1920)
Aminopeptidase N = biological target: T4, Aminopeptidase N (Plasmodium falciparum FcB1/Columbia, UniProt O96935); assay: P. falciparum M1AAP inhibitors, biochemical, fluorogenic H-Leu-NHMec substrate, 1536-well (AID 1445); parameters: species or system Plasmodium falciparum 3D7, 3D7
T4 sequence (O96935 whole entry): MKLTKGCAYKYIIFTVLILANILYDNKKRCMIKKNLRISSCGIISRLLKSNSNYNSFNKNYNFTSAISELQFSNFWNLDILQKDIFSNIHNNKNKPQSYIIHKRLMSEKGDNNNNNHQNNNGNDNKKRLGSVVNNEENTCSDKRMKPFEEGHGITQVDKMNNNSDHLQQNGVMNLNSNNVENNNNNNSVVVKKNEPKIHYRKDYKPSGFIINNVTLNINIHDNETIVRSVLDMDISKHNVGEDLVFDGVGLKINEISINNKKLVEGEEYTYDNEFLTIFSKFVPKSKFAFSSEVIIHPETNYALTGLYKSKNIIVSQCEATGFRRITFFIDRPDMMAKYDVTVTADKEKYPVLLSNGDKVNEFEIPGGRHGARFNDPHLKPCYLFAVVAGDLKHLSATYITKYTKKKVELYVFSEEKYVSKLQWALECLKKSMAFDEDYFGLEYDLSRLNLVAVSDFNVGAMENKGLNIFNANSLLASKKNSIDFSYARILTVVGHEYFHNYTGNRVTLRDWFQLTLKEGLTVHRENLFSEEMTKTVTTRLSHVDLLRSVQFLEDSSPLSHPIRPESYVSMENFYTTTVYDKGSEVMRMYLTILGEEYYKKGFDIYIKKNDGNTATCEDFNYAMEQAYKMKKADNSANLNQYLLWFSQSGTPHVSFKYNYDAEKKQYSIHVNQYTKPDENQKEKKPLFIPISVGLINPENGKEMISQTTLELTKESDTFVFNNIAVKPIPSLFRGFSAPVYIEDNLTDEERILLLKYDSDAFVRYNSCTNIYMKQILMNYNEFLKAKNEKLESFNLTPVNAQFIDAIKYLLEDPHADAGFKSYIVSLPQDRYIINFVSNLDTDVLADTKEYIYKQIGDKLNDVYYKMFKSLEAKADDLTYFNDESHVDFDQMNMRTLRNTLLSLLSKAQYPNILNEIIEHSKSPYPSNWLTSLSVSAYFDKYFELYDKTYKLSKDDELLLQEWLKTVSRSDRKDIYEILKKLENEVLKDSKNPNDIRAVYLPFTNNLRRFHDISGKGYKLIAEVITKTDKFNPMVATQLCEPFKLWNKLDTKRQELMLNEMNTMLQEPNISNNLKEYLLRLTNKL

Vero = assay: Vero cell toxicity, dose response, cytotoxicity control, plate reader, cherry-pick samples (AID 687020); type: functional, cell-based; details: Chlorocebus sabaeus
[6] = inhibitors of CMV-promoter luciferase reporter, dose response, counter-screen for Pax8 inhibitor project, cell-based, HEK293, luminescence, dry powder (AID 743020); type: functional
[7] = HEK293T cytotoxicity, dose response, cytotoxicity control for miR-122 modulator project, cell-based, activator set, cherry-pick (AID 720690); type: functional;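 also: HEK293T human cells scored for general mammalian cytotoxicity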
[8] = biological target: Heat shock protein HSP 90-alpha (Homo sapiens, UniProt P07900); type: functional, organism-based
[9] = human group III sPLA2 inhibitors, dose response, biochemical, QFRET, IC50 (AID 743457);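 also: green fluorescence rise as the enzyme cleaves BODIPY PC-A2 in liposomes; potency for inhibition of the enzyme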
[10] = inhibitors of intracellular T. cruzi replication, confirmation, NIH3T3 host cells, beta-gal luminescence (AID 2044); type: functional, cell-based;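 also: intracellular parasites grown in NIH/3T3 mouse fibroblasts as host cells; luminescent beta-galactosidase reporter signal from transgenic T. cruzi replicating inside host cells; inhibitors lower the luminescence signal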
Streptococcus = assay: Group A Streptococcus viability loss, dose response, counter-screen for streptokinase expression inhibitor project, luminescence, BacTiterGlo (AID 1915); type: functional, organism-based;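 also: potency for reduction of bacterial viability or growth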
[11] = cytotoxicity toward NIH3T3 fibroblasts, dose response, counter-screen, cell-based, ATP luminescence, mouse fibroblasts (AID 2010); type: functional;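 also: cells exposed to compound for about 90 hours before reading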
[12] = biological target: ATP-dependent molecular chaperone HSP82 (Candida albicans (strain WO-1) (Yeast), UniProt C4YTQ8); assay: loss of DOC-induced GRE-beta-galactosidase reporter signal, dose response, Hsp90 inhibitor project, S. cerevisiae, luminescence (AID 2400); type: functional, cell-based;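 also: beta-galactosidase luminescence from glucocorticoid response element reporter as proxy for Hsp90 function; inhibitor potency where signal loss means Hsp90 inhibition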
Chain of ATP-dependent molecular chaperone HSP82 (C4YTQ8 whole entry): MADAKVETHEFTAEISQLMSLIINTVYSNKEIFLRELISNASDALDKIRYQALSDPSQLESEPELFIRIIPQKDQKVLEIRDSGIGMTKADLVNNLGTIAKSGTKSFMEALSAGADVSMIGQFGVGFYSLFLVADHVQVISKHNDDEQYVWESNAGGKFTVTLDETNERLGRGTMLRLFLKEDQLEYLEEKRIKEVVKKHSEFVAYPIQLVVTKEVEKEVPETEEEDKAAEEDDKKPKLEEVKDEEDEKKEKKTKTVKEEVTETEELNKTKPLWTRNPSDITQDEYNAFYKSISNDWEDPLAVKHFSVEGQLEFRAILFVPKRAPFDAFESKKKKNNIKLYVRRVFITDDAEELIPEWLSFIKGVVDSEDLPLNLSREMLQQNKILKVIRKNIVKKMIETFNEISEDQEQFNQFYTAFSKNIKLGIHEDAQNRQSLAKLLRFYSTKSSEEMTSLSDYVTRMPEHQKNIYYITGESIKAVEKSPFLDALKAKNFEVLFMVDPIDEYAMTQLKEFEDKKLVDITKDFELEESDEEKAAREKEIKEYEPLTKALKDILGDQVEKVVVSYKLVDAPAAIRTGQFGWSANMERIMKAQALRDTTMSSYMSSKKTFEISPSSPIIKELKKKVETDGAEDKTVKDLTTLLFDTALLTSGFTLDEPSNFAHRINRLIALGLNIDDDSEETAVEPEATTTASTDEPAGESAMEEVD

[13] = NIH-3T3 fibroblast cytotoxicity, dose response, cytotoxicity control, cell-based, fluorescence, Alamar Blue, secondary assay (AID 2327); type: functional;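 also: NIH-3T3 mouse fibroblasts cultured with fluconazole at 8 µg/mL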
[14] = biological target: T5, Serine/threonine-protein phosphatase (Candida dubliniensis (strain CD36 / CBS 7987 / NCPF 3949 / NRRLY-17841) (Yeast), UniProt B9W6M3); assay: calcineurin pathway inhibitors in yeast reporter, dose response, S. cerevisiae, CDRE-lacZ, luminescence, secondary (AID 2388); type: functional, cell-based;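 also: yeast reporter cells carrying a calcineurin-responsive lacZ construct stimulated with calcium chloride; luminescent beta-galactosidase reporter signal in whole cells rather than isolated phosphatase activity; potency for inhibition where a drop in reporter signal means calcineurin blockade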
T5 sequence (B9W6M3 whole entry): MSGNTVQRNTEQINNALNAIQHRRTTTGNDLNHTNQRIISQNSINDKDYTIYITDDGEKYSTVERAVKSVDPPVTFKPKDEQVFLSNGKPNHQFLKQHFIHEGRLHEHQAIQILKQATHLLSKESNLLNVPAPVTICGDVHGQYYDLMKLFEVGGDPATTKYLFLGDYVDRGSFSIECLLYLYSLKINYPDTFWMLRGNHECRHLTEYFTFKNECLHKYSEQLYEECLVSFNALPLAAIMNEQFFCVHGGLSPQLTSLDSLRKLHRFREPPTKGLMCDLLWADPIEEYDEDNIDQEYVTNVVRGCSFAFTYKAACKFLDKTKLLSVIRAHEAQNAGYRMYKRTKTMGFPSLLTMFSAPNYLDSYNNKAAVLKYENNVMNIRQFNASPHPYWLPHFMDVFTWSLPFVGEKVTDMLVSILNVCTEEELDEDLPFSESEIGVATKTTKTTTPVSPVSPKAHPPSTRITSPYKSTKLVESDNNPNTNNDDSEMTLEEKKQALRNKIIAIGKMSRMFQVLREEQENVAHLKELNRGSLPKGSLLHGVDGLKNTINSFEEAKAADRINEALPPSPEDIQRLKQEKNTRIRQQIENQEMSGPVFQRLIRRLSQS

[15] = C. albicans growth with fluconazole, confirmation, fluorescence, retest (AID 2467); type: functional, cell-based
[16] = system: Streptococcus sp. 'group A'; assay: growth inhibition of control SK(-) GAS strain, dose response, counter-screen for streptokinase expression inhibitor project, luminescence, kanamycin, BacTiterGlo, confirmation (AID 1900); type: functional, organism-based

With `c1ccc(N=Nc2ccc(C3=NCCO3)cc2)cc1` the EC50 [1] was > 67.6 µM (inactive).

For `CCCc1cc(=O)oc2cc(OCc3cc(OC)c(OC)c(OC)c3)c(Cl)cc12`, the AC50 [2] was > 52 µM (inactive), the AC50 (Cytochrome P450 2C9) was 1 µM (inconclusive) and the AC50 (Cytochrome P450 3A4) was 3.55 µM (inconclusive).

With `CO/N=C/c1ccc(Oc2ccc(C)cc2)nc1` the IC50 (Beta-galactosidase) was > 80 µM (inactive).

In the case of `Cc1cc(OCc2cc(C(=O)O)oc2C)c2c3c(c(=O)oc2c1)CCCC3`, the IC50 (Beta-lactamase [3]) is reported as > 59.6 µM (inactive), the IC50 (Phospholipase A2) is reported as 13.5 µM (active) and the IC50 (Beta-lactamase [4]) is reported as > 59.6 µM (inactive). The IC50 (Cysteine protease ATG4B) was 17.3 µM (active), the IC50 (Beta-lactamase [5]) was > 59.6 µM (inactive) and the IC50 (Aminopeptidase N) was 66.4 µM (active).

In the case of `O=C(CN1CCC(O)(c2cccc(C(F)(F)F)c2)CC1)NCCc1ccccc1`, the AC50 (Vero) is reported as 11.6 µM (active).

In the case of `CC1CCN(CCOc2ccc(OCc3ccccc3)cc2)CC1`, the AC50 (Vero) is reported as 25.9 µM (active) and the AC50 [6] is reported as < 9.29 µM (active).

For `CCCNC(=O)C[C@@H]1CC[C@H]2[C@H](COc3ccc(NC(=O)c4ccc(C(F)(F)F)cc4)cc3C(=O)N2C)O1`, the AC50 [7] was 31.5 µM (active).

For `COc1ccc(Cl)cc1C(Nc1cccnc1)c1ccc2cccnc2c1O` (stereo not given), the AC50 [8] was 2.2 µM (active), the IC50 [9] was > 122 µM (inactive) and the EC50 [10] was 1.86 µM (active). For the same molecule, the EC50 (Streptococcus) was 5.9 µM (active), the EC50 [11] was 6.56 µM (active) and the EC50 [12] was 16.3 µM (active). The EC50 [13] was 33.6 µM (active), the EC50 [14] was > 180 µM (inactive) and the EC50 [15] was 0.728 µM (active). For the same molecule, the EC50 [16] was 3.74 µM (active).
